Reference: patent publication US20240140938A1, “PREPARATION OF TETRAHYDROINDAZOLE DERIVATIVES AS NOVEL DIACYLGLYCERIDE O-ACYLTRANSFERASE 2 INHIBITORS” (MERCK SHARP & DOHME LLC, priority 2020, published 2024)

Molecular target: human DGAT2 (hDGAT2) (Homo sapiens (Human), UniProt Q96PD7)
Experiment: DGAT2 Enzymatic Activity Assay
Assay type: biochemical
Settings: hDGAT2 Sf-9 membrane prep; 13C18-triolein product by LC/MS/MS; 25 μM diolein, 5 μM 13C oleoyl-CoA
Procedure: Sf-9 insect cells were maintained in Grace's insect cell culture medium with 10% heated-inactivated fetal bovine serum, 1% Pluronic F-68 and 0.14 μg/ml Kanamycine sulfate at 27° C. in a shaker incubator. After infection with untagged baculovirus expressing human DGAT2 (hDGAT2) at multiplicity of infection (MOI) 3 for 48 hours, cells were harvested. Cell pellets were suspended in buffer containing 10 mM Tris-HCl pH 7.5, 1 mM EDTA, 250 mM sucrose and Complete Protease Inhibitor Cocktail (Sigma Aldrich), and sonicated on ice. Cell debris were removed by centrifugation at 2000×g for 15 minutes. Membrane fractions were isolated by ultracentrifugation (100,000×g), resuspended in the same buffer, and frozen (−80° C.) for later use. The protein concentration was determined with the Pierce™ BCA Protein Assay Kit (Thermo Fisher Scientific).
LC/MS/MS analyses were performed using Thermal Fisher's LX4-TSQ Vantage system. This system consists of an Agilent binary high-performance liquid chromatography (HPLC) pump and a TSQ Vantage triple quadrupole MS/MS instrument. For each sample, 2 μL samples from the top organic layer of in-plate liquid-liquid extraction were injected onto a Thermo Betabasic C4 column (2.1 mm×20 mm, 5 μm particle size). The samples were then eluted using the following conditions; mobile phase: Isopropanol: acetonitrile/10 mM ammonium formate=50/35/15 (v/v/v), flow rate: 0.8 mL/min, temperature: 25° C. Data was acquired in positive mode using a heated electrospray ionization (HESI) interface. […] The peak area was integrated by Xcalibur Quan software. The ratio between the ^13C18triolein generated in the reaction and spiked in internal standard ^13C21-triolein was used to generate percentage inhibition and IC50 values. Compound percentage inhibition was calculated by the following formula: Inhibition %=1−[(compound response−low control)/(high control−low control)]×100%.
DGAT2 activity was determined by measuring the amount of enzymatic product ^13C18-triolein (^13C-1,2,3-Tri(cis-9-octadecenoyl)glycerol) using the membrane prep mentioned above. The assay was carried out in ABgene 384-well assay plates in a final volume of 25 μL at rt.

Chain of human DGAT2 (hDGAT2) (Q96PD7 whole entry): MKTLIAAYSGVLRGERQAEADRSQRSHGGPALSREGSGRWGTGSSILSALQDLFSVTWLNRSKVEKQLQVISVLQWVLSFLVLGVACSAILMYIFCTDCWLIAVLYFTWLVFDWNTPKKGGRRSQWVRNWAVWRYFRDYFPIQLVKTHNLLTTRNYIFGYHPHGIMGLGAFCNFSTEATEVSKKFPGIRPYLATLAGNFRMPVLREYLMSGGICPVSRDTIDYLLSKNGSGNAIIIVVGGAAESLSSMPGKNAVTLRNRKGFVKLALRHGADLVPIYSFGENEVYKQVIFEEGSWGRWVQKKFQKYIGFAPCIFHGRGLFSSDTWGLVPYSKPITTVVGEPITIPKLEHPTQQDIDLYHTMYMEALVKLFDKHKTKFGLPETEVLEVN

Structure (SMILES) | IC50 [nM]
C[C@]1(NC(=O)[C@@H]2CCc3c(-c4cccc(C5(F)CC5)c4)nn(-c4ccc(F)cc4)c3C2)CCS(=O)(=O)C1 [Example 17, (R)-3-(3-(1-fluorocyclopropyl)phenyl)-1-(4-fluorophenyl)-N-((S)-3-methyl-1,1-dioxidotetrahydrothiophen-3-yl)-4,5,6,7-tetrahydro-1H-indazole-6-carboxamide] | 70.7
CC(C)N1CCC(NC(=O)[C@@H]2CCc3c(-c4cc(OC(F)F)ccc4F)nn(C(C)C)c3C2)C1=O (stereo partly drawn) [Example 64, (6R)-3-(5-(difluoromethoxy)-2-fluorophenyl)-1-isopropyl-N-(1-isopropyl-2-oxopyrrolidin-3-yl)-4,5,6,7-tetrahydro-1H-indazole-6-carboxamide] | 622
C[C@]1(NC(=O)C2CCc3c(-c4cccc(OC(F)F)c4)nn(-c4ncc(Cl)cn4)c3C2)CCS(=O)(=O)C1 (stereo partly drawn) [Example 10, 1-(5-chloropyrimidin-2-yl)-3-(3-(difluoromethoxy)phenyl)-N-((S)-3-methyl-1,1-dioxidotetrahydrothiophen-3-yl)-4,5,6,7-tetrahydro-1H-indazole-6-carboxamide] | 37
CC(C)n1nc(-c2cccc(C3(C(F)(F)F)CC3)c2)c2c1C[C@H](C(=O)NC1(C)CS(=O)(=O)C1)CC2 [Example 90, (R)-1-isopropyl-N-(3-methyl-1,1-dioxidothietan-3-yl)-3-(3-(1-(trifluoromethyl)cyclopropyl)phenyl)-4,5,6,7-tetrahydro-1H-indazole-6-carboxamide] | > 10000
[2H]C([2H])([2H])C([2H])(n1nc(-c2cc(OC(F)F)ccc2F)c2c1C[C@H](C(=O)NC1(C#N)CCS(=O)(=O)CC1)CC2)C([2H])([2H])[2H] [Example 51, (R)-N-(4-cyano-1,1-dioxidotetrahydro-2H-thiopyran-4-yl)-3-(5-(difluoromethoxy)-2-fluorophenyl)-1-(propan-2-yl-d7)-4,5,6,7-tetrahydro-1H-indazole-6-carboxamide] | 4.3
C[C@]1(NC(=O)[C@@H]2CCc3c(-c4cccc(OC(F)F)c4)nn(Cc4ccccc4)c3C2)CCS(=O)(=O)C1 [Example 77, (R)-1-benzyl-3-(3-(difluoromethoxy)phenyl)-N-((S)-3-methyl-1,1-dioxidotetrahydrothiophen-3-yl)-4,5,6,7-tetrahydro-1H-indazole-6-carboxamide] | 577
CC(C)n1nc(-c2cc(OCC(F)(F)F)ncc2F)c2c1C[C@H](C(=O)N[C@@]1(C)CCS(=O)(=O)C1)CC2 [Example 44, (R)-3-(5-fluoro-2-(2,2,2-trifluoroethoxy)pyridin-4-yl)-1-isopropyl-N-((S)-3-methyl-1,1-dioxidotetrahydrothiophen-3-yl)-4,5,6,7-tetrahydro-1H-indazole-6-carboxamide] | 5.3
CC(C)n1nc(-c2cncc(OC(F)(F)C(F)F)c2)c2c1C[C@H](C(=O)N[C@@]1(C)CCS(=O)(=O)C1)CC2 [Example 105, (R)-1-isopropyl-N-((S)-3-methyl-1,1-dioxidotetrahydrothiophen-3-yl)-3-(5-(1,1,2,2-tetrafluoroethoxy)pyridin-3-yl)-4,5,6,7-tetrahydro-1H-indazole-6-carboxamide] | 118
CC(n1nc(-c2cc(OCC(F)(F)F)ncc2F)c2c1C[C@H](C(=O)NC1(C)CCS(=O)(=O)CC1)CC2)C(C)(C)O (single isomer, unassigned) [Example 107b] | 5.4
CC(C)n1nc(-c2cccc(CC#N)c2)c2c1C[C@H](C(=O)NC1(C)CS(=O)(=O)C1)CC2 [Example 94, (R)-3-(3-(cyanomethyl)phenyl)-1-isopropyl-N-(3-methyl-1,1-dioxidothietan-3-yl)-4,5,6,7-tetrahydro-1H-indazole-6-carboxamide] | > 10000
CCOc1cc(-c2nn(C(C)C(C)(C)O)c3c2CC[C@@H](C(=O)N[C@@]2(C)CCS(=O)(=O)C2)C3)c(F)cn1 (single isomer, unassigned) [Example 108b] | 172
CC(C)n1nc(-c2cccc(OC(F)F)c2)c2c1C[C@H](C(=O)N[C@@]1(C)CCS(=O)(=O)C1)CC2 [Example 25, (R)-3-(3-(difluoromethoxy)phenyl)-1-isopropyl-N-((S)-3-methyl-1,1-dioxidotetrahydrothiophen-3-yl)-4,5,6,7-tetrahydro-1H-indazole-6-carboxamide] | 59.8
CC(C)n1nc(-c2cc(OC(F)F)ccc2F)c2c1C[C@H](C(=O)NC1(C)CCS(=O)(=O)CC1)CC2 [Example 30, (R)-3-(5-(difluoromethoxy)-2-fluorophenyl)-1-isopropyl-N-(4-methyl-1,1-dioxidotetrahydro-2H-thiopyran-4-yl)-4,5,6,7-tetrahydro-1H-indazole-6-carboxamide] | 5.5
COCC(C)(C)NC(=O)[C@@H]1CCc2c(-c3cccc(OC(F)F)c3)nn(C(C)C)c2C1 [Example 66, (R)-3-(3-(difluoromethoxy)phenyl)-1-isopropyl-N-(1-methoxy-2-methylpropan-2-yl)-4,5,6,7-tetrahydro-1H-indazole-6-carboxamide] | 1330
C[C@]1(NC(=O)[C@@H]2Cc3c(c(-c4cccc(OC(F)F)c4)nn3C3CCOCC3)C(F)(F)C2)CCS(=O)(=O)C1 (single isomer, unassigned) [Example 117a] | > 10000
CCOc1cc(-c2nn(C(C)C(F)(F)F)c3c2CC[C@@H](C(=O)NC2(C)CCS(=O)(=O)CC2)C3)c(F)cn1 (single isomer, unassigned) [Example 53a] | 162
CC(C(F)F)n1nc(-c2cc(OC(F)F)ccc2F)c2c1C[C@H](C(=O)NC1(C)CS(=O)(=O)C1)CC2 (single isomer, unassigned) [Example 48b] | 19.8
[2H]C([2H])([2H])C([2H])(n1nc(-c2cc(OC(F)F)ccc2F)c2c1C[C@H](C(=O)NC1(C)CCS(=O)(=O)CC1)CC2)C([2H])([2H])[2H] [Example 46, (R)-3-(5-(difluoromethoxy)-2-fluorophenyl)-N-(4-methyl-1,1-dioxidotetrahydro-2H-thiopyran-4-yl)-1-(propan-2-yl-d7)-4,5,6,7-tetrahydro-1H-indazole-6-carboxamide] | 37.9
CC(n1nc(-c2cccc(OC(F)F)c2)c2c1C[C@H](C(=O)NC1(C)CCS(=O)(=O)CC1)CC2)C(C)(C)O (single isomer, unassigned) [Example 111b] | 230
CC(C)n1nc(-c2cncc(OC(F)F)c2)c2c1C[C@H](C(=O)N[C@@H](C)CN1CCO[C@H](C)C1)CC2 [Example 68, (R)-3-(5-(difluoromethoxy)pyridin-3-yl)-1-isopropyl-N-((S)-1-((R)-2-methylmorpholino)propan-2-yl)-4,5,6,7-tetrahydro-1H-indazole-6-carboxamide] | > 10000
CC(C)n1nc(-c2cc(OC(F)F)ccc2F)c2c1C[C@H](C(=O)NC1(C)CCN(C(=O)C3CC3)C1)CC2 (stereo partly drawn) [Example 61, (6R)-N-(1-(cyclopropanecarbonyl)-3-methylpyrrolidin-3-yl)-3-(5-(difluoromethoxy)-2-fluorophenyl)-1-isopropyl-4,5,6,7-tetrahydro-1H-indazole-6-carboxamide] | 26.2
CC(C)n1nc(-c2cccc(OC(F)(F)F)c2)c2c1C[C@H](C(=O)NC1(C)CCS(=O)(=O)CC1)CC2 [Example 55, (R)-1-isopropyl-N-(4-methyl-1,1-dioxidotetrahydro-2H-thiopyran-4-yl)-3-(3-(trifluoromethoxy)phenyl)-4,5,6,7-tetrahydro-1H-indazole-6-carboxamide] | 86.6
CC(C)n1nc(-c2cncc(OC(F)(F)C(F)F)c2)c2c1C[C@H](C(=O)NC1(C)CCS(=O)(=O)CC1)CC2 [Example 106, (R)-1-isopropyl-N-(4-methyl-1,1-dioxidotetrahydro-2H-thiopyran-4-yl)-3-(5-(1,1,2,2-tetrafluoroethoxy)pyridin-3-yl)-4,5,6,7-tetrahydro-1H-indazole-6-carboxamide] | 204
CC(C(F)F)n1nc(-c2cc(OC(F)F)ccc2F)c2c1C[C@H](C(=O)NC1(C)CCS(=O)(=O)CC1)CC2 (single isomer, unassigned) [Example 49a] | 32.1
C[C@]1(NC(=O)[C@@H]2CCc3c(-c4cccc(OC(F)F)c4)nn(C4CCS(=O)(=O)CC4)c3C2)CCS(=O)(=O)C1 [Example 24, (R)-3-(3-(difluoromethoxy)phenyl)-1-(1,1-dioxidotetrahydro-2H-thiopyran-4-yl)-N-((S)-3-methyl-1,1-dioxidotetrahydrothiophen-3-yl)-4,5,6,7-tetrahydro-1H-indazole-6-carboxamide] | 144
C[C@]1(NC(=O)[C@@H]2CCc3c(-c4ccccc4Cl)nn(-c4ccc(F)cc4)c3C2)CCS(=O)(=O)C1 (single isomer, unassigned) [Example 1b] | 33.7
